In patent publication US9650339B2, “Inhibitors of histone demethylases” (Gilead Sciences, Inc., priority 2013, dated 2017):

Legend:
[1] = system: H3K4me3 mark; assay: Histone lysine demethylase immunofluorescence assay, non-transfected U2OS cells; type: cell-based; conditions: Homo sapiens, staining of the H3K4me3 mark, 20 hours incubation with compound
Outline: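 Non-transfected U2OS cells incubated with compounds 20 h in DMEM/5% FBS. Fixed cells immunostained for H3K4me3 with Hoechst counterstain and imaged by high-throughput microscopy. IC50 based on average cellular H3K4me3 staining.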

[2] = system: MCF7 cells; assay: Cell proliferation assay MCF7; type: cell-based; conditions: MCF7 human breast cancer cells; 120 hours; ATPlite 1 Step
Outline: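 Cells grown 24 h in DMEM GlutaMAX/10% FBS, then exposed to compounds in duplicate (≤0.5% DMSO) for 120 h. Viability read as ATP luminescence (ATPlite 1 Step). Seeding set to reach ~90% confluence at harvest.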

[3] = target: T1, KDM4B (JMJD2B) (Homo sapiens, UniProt O94953); assay: Histone lysine demethylase AlphaLISA assay, KDM4B; type: biochemical; conditions: read-out: KDM4B HDME Inhibition IC50
T1 construct: 2-500; purchased BPS; host or cells: Bac (baculovirus system)
T1 sequence (O94953 2-500): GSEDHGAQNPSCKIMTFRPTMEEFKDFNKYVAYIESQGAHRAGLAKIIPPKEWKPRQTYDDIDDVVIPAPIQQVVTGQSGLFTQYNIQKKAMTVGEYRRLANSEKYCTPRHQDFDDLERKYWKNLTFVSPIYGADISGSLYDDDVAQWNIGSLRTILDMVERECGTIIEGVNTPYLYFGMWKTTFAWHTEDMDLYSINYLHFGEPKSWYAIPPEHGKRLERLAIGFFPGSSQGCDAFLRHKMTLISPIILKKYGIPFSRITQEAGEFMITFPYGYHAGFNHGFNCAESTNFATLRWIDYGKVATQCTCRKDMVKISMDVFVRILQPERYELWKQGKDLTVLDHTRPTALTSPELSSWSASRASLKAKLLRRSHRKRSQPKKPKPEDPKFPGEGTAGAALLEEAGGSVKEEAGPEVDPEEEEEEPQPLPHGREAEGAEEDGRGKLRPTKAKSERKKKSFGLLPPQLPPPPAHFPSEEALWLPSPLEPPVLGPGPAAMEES
Method: (§1) Assays are performed analogously to the protocol described by PerkinElmer (Roy et al. PerkinElmer Technical Note: AlphaLISA #12, April 2011)
(§2) Enzymes are dissolved in enzyme buffer and incubated for 10 min before being added to 3% DMSO solutions of compounds in enzyme buffer. Incubated for another 10 minutes, before substrate solution is added and the reaction mixture is incubated at room temperature. 10 μL acceptor beads, suspended in Epigenetic Buffer (Perkin Elmer AL008) from stock, are added and the suspension is incubated in the dark at room temperature, before a suspension of streptavidin donor beads (Perkin Elmer 6760002) in Epigenetic Buffer is added. After incubation at room temperature in the dark the plates are read.
BK9M3: Biotin-ARTKQTAR(KMe3)STGGKAPRKQ-NH2 (Caslo, Denmark) […]
(§3) Substrate Solution: Substrate, 25 μM L-Asc, and 10 μM α-KG in Buffer A.

[4] = target: T2, KDM3B (JMJD1B) (Homo sapiens, UniProt Q7LBC6); assay: Histone lysine demethylase AlphaLISA assay, KDM3B; type: biochemical; conditions: read-out: KDM3B HDME Inhibition IC50
T2 construct: 842-1761; host or cells: Bac (baculovirus system)
T2 sequence (Q7LBC6 842-1761): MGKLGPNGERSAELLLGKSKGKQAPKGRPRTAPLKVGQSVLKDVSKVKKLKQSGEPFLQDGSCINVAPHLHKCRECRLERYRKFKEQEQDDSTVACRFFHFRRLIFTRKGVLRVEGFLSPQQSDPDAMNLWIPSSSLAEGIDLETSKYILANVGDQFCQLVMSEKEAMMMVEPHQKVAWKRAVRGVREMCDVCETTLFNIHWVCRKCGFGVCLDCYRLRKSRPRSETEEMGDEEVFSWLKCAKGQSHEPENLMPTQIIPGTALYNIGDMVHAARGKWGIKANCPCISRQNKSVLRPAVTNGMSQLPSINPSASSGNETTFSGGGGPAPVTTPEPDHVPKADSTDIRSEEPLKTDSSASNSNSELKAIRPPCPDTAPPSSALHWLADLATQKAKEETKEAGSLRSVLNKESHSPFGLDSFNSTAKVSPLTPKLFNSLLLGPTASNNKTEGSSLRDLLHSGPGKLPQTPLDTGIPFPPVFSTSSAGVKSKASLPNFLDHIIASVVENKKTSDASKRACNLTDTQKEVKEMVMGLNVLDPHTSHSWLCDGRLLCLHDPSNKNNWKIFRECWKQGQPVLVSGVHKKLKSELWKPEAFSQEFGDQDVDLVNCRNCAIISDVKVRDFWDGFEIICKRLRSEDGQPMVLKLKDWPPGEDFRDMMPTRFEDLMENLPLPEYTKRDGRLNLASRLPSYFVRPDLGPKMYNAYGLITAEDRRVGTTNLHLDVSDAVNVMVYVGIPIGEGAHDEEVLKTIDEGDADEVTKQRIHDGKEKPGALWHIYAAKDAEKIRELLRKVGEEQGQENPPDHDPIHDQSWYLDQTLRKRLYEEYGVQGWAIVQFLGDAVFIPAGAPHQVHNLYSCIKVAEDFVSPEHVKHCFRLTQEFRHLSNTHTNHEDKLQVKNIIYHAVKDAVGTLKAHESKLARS
Method: as §1
as §2, with “read. […]” for “read.”
BK9M2: Biotin-ARTKQTAR(KMe2)STGGKAPRKQ-NH2 (AnaSpec 64359) […]
as §3

| Structure (SMILES) | IC50 [1] [µM] | EC50 [2] [µM] | IC50 [3] [µM] | IC50 [4] [µM] |
| --- | --- | --- | --- | --- |
| COc1ccccc1CN1CCC(NC(=O)CNCc2cc(CN)ccn2)CC1 [Compound 9, 2-({[4-(aminomethyl)pyridin-2-yl]methyl}amino)-N-{1-[(2-methoxyphenyl)methyl]-piperidin-4-yl}acetamide] | 0.25 to 2.5 | > 2.5 | > 2.5 | > 2.5 |
| CN(C)C(=O)CNCc1cc(CNCC#N)ccn1 [Compound 13, 2-{[(4-{[(cyanomethyl)amino]-methyl}pyridin-2-yl)methyl]amino}-N,N-dimethylacetamide] | 0.25 to 2.5 | – | > 2.5 | > 2.5 |
| CN(C)C(=O)CNCc1cc(/C=N\C2CC2)ccn1 [Compound 33] | 0.25 to 2.5 | – | > 2.5 | > 2.5 |
| CN(C)CCCNCc1cc(/C=N/CCN(C)C)ccn1 [Compound 38, ({4-[{[2-(dimethylamino)ethyl]-imino}methyl]pyridin-2-yl}methyl)[3-(dimethylamino)-propyl]amine] | < 0.25 | < 0.25 | > 2.5 | > 2.5 |
| CN1CCCC1CCNCc1cc(/C=N/C2CC2)ccn1 (stereo not drawn) [Compound 40, N-{[2-({[2-(l-methylpyrrolidin-2-yl)ethyl]amino}methyl)-pyridin-4-yl]methylidene}-cyclopropanamine] | < 0.25 | 0.25 to 2.5 | 0.25 to 2.5 | > 2.5 |
| CCN(CCN(C)C)C(=O)CNCc1cc(C2OCC3(CC3)CN2C(=O)C(F)(F)F)ccn1 (stereo not drawn) [Compound 91, N-[2--(dimethylamino)-ethyl]-N-ethyl-2-[({4-[7-(trifluoroacetyl)-5-oxa-7-azaspiro[2.5]-octan-6-yl]pyridin-2-yl}methyl)amino]-acetamide] | < 0.25 | < 0.25 | – | – |
| CN(C)CC1CCC(CNCc2cc(C=O)ccn2)CC1 (stereo not drawn) [Compound 97, 2-{[({4-[(dimethylamino)-methyl]cyclohexyl}-methyl)amino]-methyl}pyridine-4-carbaldehyde] | < 0.25 | 0.25 to 2.5 | – | > 2.5 |
| CN(C)C/C=C\CNCc1cc(C=O)ccn1 [Compound 99, 2-({[(2Z)-4-(dimethylamino)-but-2-en-1-yl]amino}methyl)-pyridine-4-carbaldehyde] | 0.25 to 2.5 | > 2.5 | – | > 2.5 |
| CN1CCC(CNCc2cc(C=O)ccn2)CC1 [Compound 100, 2-({[(1-methyl-piperidin-4-yl)methyl]amino}-methyl)pyridine-4-carbaldehyde] | < 0.25 | < 0.25 | – | > 2.5 |
| CCN(CC)CCCCN(Cc1cc(C=O)ccn1)C(=O)C(F)(F)F [Compound 115, N-[4-(diethylamino)butyl]-2,2,2-trifluoro-N-[(4-formylpyridin-2-yl)methyl]acetamide] | < 0.25 | < 0.25 | – | > 2.5 |
| CCN(CC(C)(C)N(C)C)C(=O)CNCc1cc(C=O)ccn1 [Compound 118, N-[2-(dimethylamino)-2-methylpropyl]-N-ethyl-2-{[(4-formylpyridin-2-yl)methyl]amino}-acetamide] | < 0.25 | < 0.25 | – | – |

The next lines start with the values.

| IC50 [1] [µM] | EC50 [2] [µM] | IC50 [3] [µM] | IC50 [4] [µM] | Structure (SMILES) |
| --- | --- | --- | --- | --- |
| < 0.25 | < 0.25 | < 0.25 | > 2.5 | CCN(CC)CCCCNCc1cc(CNC(=O)C(F)(F)F)ccn1 [Compound 1, N-{[2-({[4-(diethylamino)butyl]-amino}methyl)pyridin-4-yl]methyl}-2,2,2-trifluoroacetamide] |
| < 0.25 | < 0.25 | < 0.25 | > 2.5 | CN(C)CCCNCc1cc(CN)ccn1 [Compound 3, [2-({[3-(dimethylamino)propyl]-amino}methyl)pyridin-4-yl]methanamine] |
| < 0.25 | < 0.25 | < 0.25 | > 2.5 | CCN(CCN(C)C)C(=O)CNCc1cc(CN)ccn1 [Compound 4, 2-({[4-(aminomethyl)pyridin-2-yl]methyl}amino)-N-[2-(dimethylamino)ethyl]-N-ethylacetamide] |
| < 0.25 | < 0.25 | < 0.25 | > 2.5 | CCN(CC)CCCCN(Cc1cc(CNC(=O)C(F)(F)F)ccn1)C(=O)C(F)(F)F [Compound 6, N-[4-(diethylamino)butyl]-- 2,2,2-trifluoro-N-({4-[(trifluoroacetamido)-methyl]pyridin-2-yl}methyl)acetamide] |
| < 0.25 | 0.25 to 2.5 | < 0.25 | > 2.5 | NCc1ccnc(CNCCCCN2CCC2)c1 [Compound 7, [2-({[4-(azetidin-1-yl)butyl]amino}methyl)-pyridin-4-yl]-methanamine] |
| < 0.25 | < 0.25 | 0.25 to 2.5 | > 2.5 | CC(C#N)NCc1ccnc(CNCCCN(C)C)c1 (stereo not drawn) [Compound 22, 2-({[2-({[3-(dimethylamino)propyl]-amino}methyl)pyridin-4-yl]methyl}amino)-propanenitrile] |
| < 0.25 | – | > 2.5 | > 2.5 | N#CCNCc1ccnc(CNCCCCN(Cc2ccccc2)C2CC2)c1 [Compound 23, 2-[({2-[({4-[benzyl(cyclopropyl)-amino]butyl}amino)-methyl]pyridin-4-yl}methyl)amino]-acetonitrile] |
| < 0.25 | – | < 0.25 | > 2.5 | CNC(C#N)c1ccnc(CNCCCN(C)C)c1 (stereo not drawn) [Compound 24, 2-[2-({[3-(dimethylamino)propyl]-amino}methyl)pyridin-4-yl]-2-(methylamino)-acetonitrile] |
| < 0.25 | < 0.25 | > 2.5 | > 2.5 | CCN(CCN(C)C)C(=O)CNCc1cc(CNC(=O)C(F)(F)F)ccn1 [Compound 25, N-[(2-{[({[2-(dimethylamino)ethyl]-(ethyl)carbamoyl}-methyl)amino]methyl}-pyrtdin-4-yl)methyl]-2,2,2-trifluoroacetamide] |
| < 0.25 | 0.25 to 2.5 | < 0.25 | > 2.5 | CN(C)C(=O)CNCc1cc(/C=N/CCC2CCCCC2)ccn1 [Compound 36, 2-[({4-[[(2-cyclohexylethyl)imino]-methyl]pyridin-2-yl}methyl)amino]-N,N-dimethylacetamide] |
